{"source": "patent US6534094B2", "about": "“Manufacturing process of microcapsules for sustained release of water soluble peptides” (Eriochem S.A., priority 2000, dated 2003)", "origin": "cited, not measured here", "conditions": "superactive agonist of LH-RH; fold of the biological activity of LH-RH", "data": [{"smiles": "CCNC(=O)[C@@H]1CCCN1C(=O)[C@H](CCCNC(=N)N)NC(=O)[C@H](CC(C)C)NC(=O)[C@@H](CC(C)C)NC(=O)[C@H](Cc1ccc(O)cc1)NC(=O)[C@H](CO)NC(=O)[C@H](Cc1c[nH]c2ccccc12)NC(=O)[C@H](Cc1c[nH]cn1)NC(=O)[C@@H]1CCC(=O)N1", "note": "[leuprolide acetate]", "values": [{"measurement": "biological activity relative to LH-RH", "value": "approximately 10 times"}]}]}
